molecular target: Ba/F3 cell line expressing TYK2 (Homo sapiens, UniProt P29597, cells depend on it, form not given); experiment: In vitro cellular inhibition assay (Ba/F3 cell proliferation, CellTiter-Glo); type: cell-based; details: read-out: IC50 (the source's name)
Protocol: The inhibitory effect of the compounds of formula (I) according to the present invention on the TYK2 signaling pathway in cells was assessed using the following method:
Instrumentation: SpectraMax Paradigm reader.
Method: in this experiment, a Ba/F3 cell line expressing TYK2 was employed to assess the effect of the compounds on cell proliferation inhibition by measuring their effects on cell activity in vitro.
Procedure: a CellTiter-Glo buffer was thawed and placed aside till room temperature. A CellTiter-Glo substrate was placed aside till room temperature and dissolved with the buffer to prepare a CellTiter-Glo working solution. To a 96-well flat bottom transparent drug plate, 98 μL of cell culture medium and 2 μL of gradient diluted compound solution were added. The drug plate was placed aside for 10 min, and then 50 μL of the CellTiter-Glo working solution was added. The drug plate was subsequently shaken on an orbital shaker for 2 min and placed aside at room temperature for an additional 10 min. Finally, the luminescence signal was measured on the SpectraMax Paradigm reader.
Data Analysis: the cell proliferation inhibition rate data were processed using the following formula:
Inhibition Rate (Inh %)=100−(RLUDrug−RLUMin)/(RLUMax−RLUMin)×100%.
The inhibition rates of compounds with different concentrations were calculated in EXCEL, and then GraphPad Prism software was employed to plot inhibition rate curve and calculate relevant parameters, including maximum and minimum cell inhibition rates, IC50 values.

GI50, 5 to 10 nM:
[2H]C([2H])([2H])NC(=O)c1nnc(NC(=O)C2CC2)cc1Nc1cccc(C(=O)Nc2ccccc2)c1OC [Example 1]
[2H]C([2H])([2H])NC(=O)c1nnc(NC(=O)C2CC2)cc1Nc1cccc(C(=O)Nc2cccc(F)c2)c1OC [Example 6]
[2H]C([2H])([2H])NC(=O)c1nnc(NC(=O)C2CC2)cc1Nc1cccc(C(=O)Nc2ccccc2F)c1OC [Example 7]
[2H]C([2H])([2H])NC(=O)c1nnc(NC(=O)C2CC2)cc1Nc1cccc(C(=O)Nc2cccc(C)c2C)c1OC [Example 8]
[2H]C([2H])([2H])NC(=O)c1nnc(NC(=O)C2CC2)cc1Nc1cccc(C(=O)Nc2cc(C)cc(C)c2)c1OC [Example 9]
[2H]C([2H])([2H])NC(=O)c1nnc(NC(=O)C2CC2)cc1Nc1cccc(C(=O)Nc2ccccc2C)c1OC [Example 10]
[2H]C([2H])([2H])NC(=O)c1nnc(NC(=O)C2CC2)cc1Nc1cccc(C(=O)Nc2cccc(C3CC3)c2)c1OC [Example 11]
[2H]C([2H])([2H])NC(=O)c1nnc(NC(=O)C2CC2)cc1Nc1cccc(C(=O)Nc2cccc(C(F)(F)F)c2)c1OC [Example 12]
[2H]C([2H])([2H])NC(=O)c1nnc(NC(=O)C2CC2)cc1Nc1cccc(C(=O)Nc2cccc(CC)c2)c1OC [Example 13]
[2H]C([2H])([2H])NC(=O)c1nnc(NC(=O)C2CC2)cc1Nc1cccc(C(=O)Nc2cccc(OC)c2)c1OC [Example 14]
[2H]C([2H])([2H])NC(=O)c1nnc(NC(=O)C2CC2)cc1Nc1cccc(C(=O)Nc2cccc(C#N)c2)c1OC [Example 15]
[2H]C([2H])([2H])NC(=O)c1nnc(NC(=O)C2CC2)cc1Nc1cccc(C(=O)Nc2cccc(C(C)C)c2)c1OC [Example 16]
[2H]C([2H])([2H])NC(=O)c1nnc(NC(=O)C2CC2)cc1Nc1cccc(C(=O)Nc2cccc(C(C)(C)C)c2)c1OC [Example 17]
[2H]C([2H])([2H])NC(=O)c1nnc(NC(=O)C2CC2)cc1Nc1cccc(C(=O)Nc2ccc(CC)cc2)c1OC [Example 18]
[2H]C([2H])([2H])NC(=O)c1nnc(NC(=O)C2CC2)cc1Nc1cccc(C(=O)Nc2ccc(C3CC3)cc2)c1OC [Example 19]
[2H]C([2H])([2H])NC(=O)c1nnc(NC(=O)C2CC2)cc1Nc1cccc(C(=O)Nc2ccc(C(C)C)cc2)c1OC [Example 20]
[2H]C([2H])([2H])NC(=O)c1nnc(NC(=O)C2CC2)cc1Nc1cccc(C(=O)Nc2ccc(C(C)(C)C)cc2)c1OC [Example 21]
[2H]C([2H])([2H])NC(=O)c1nnc(NC(=O)C2CC2)cc1Nc1cccc(C(=O)Nc2ccc(C(F)(F)F)cc2)c1OC [Example 22]
[2H]C([2H])([2H])NC(=O)c1nnc(NC(=O)C2CC2)cc1Nc1cccc(C(=O)Nc2ccc(C#N)cc2)c1OC [Example 23]
[2H]C([2H])([2H])NC(=O)c1nnc(NC(=O)C2CC2)cc1Nc1cccc(C(=O)Nc2ccc(OC)cc2)c1OC [Example 24]
[2H]C([2H])([2H])NC(=O)c1nnc(NC(=O)C2CC2)cc1Nc1cccc(C(=O)Nc2ccc(CC)c(C)c2)c1OC [Example 25]
[2H]C([2H])([2H])NC(=O)c1nnc(NC(=O)C2CC2)cc1Nc1cccc(C(=O)Nc2ccc(C3CC3)c(C)c2)c1OC [Example 26]
[2H]C([2H])([2H])NC(=O)c1nnc(NC(=O)C2CC2)cc1Nc1cccc(C(=O)Nc2ccc(C(C)C)c(C)c2)c1OC [Example 27]
[2H]C([2H])([2H])NC(=O)c1nnc(NC(=O)C2CC2)cc1Nc1cccc(C(=O)Nc2ccc(C(C)(C)C)c(C)c2)c1OC [Example 28]
[2H]C([2H])([2H])NC(=O)c1nnc(NC(=O)C2CC2)cc1Nc1cccc(C(=O)Nc2ccc(C(F)(F)F)c(C)c2)c1OC [Example 29]
[2H]C([2H])([2H])NC(=O)c1nnc(NC(=O)C2CC2)cc1Nc1cccc(C(=O)Nc2ccc(C#N)c(C)c2)c1OC [Example 30]
[2H]C([2H])([2H])NC(=O)c1nnc(NC(=O)C2CC2)cc1Nc1cccc(C(=O)Nc2ccc(OC)c(C)c2)c1OC [Example 31]
[2H]C([2H])([2H])NC(=O)c1nnc(NC(=O)C2CC2)cc1Nc1cccc(C(=O)Nc2ccc(F)c(C)c2)c1OC [Example 32]
[2H]C([2H])([2H])NC(=O)c1nnc(NC(=O)C2CC2)cc1Nc1cccc(C(=O)Nc2ccn(C)n2)c1OC [Example 33]
[2H]C([2H])([2H])NC(=O)c1nnc(NC(=O)C2CC2)cc1Nc1cccc(C(=O)Nc2cn(C)cn2)c1OC [Example 35]
[2H]C([2H])([2H])NC(=O)c1nnc(NC(=O)C2CC2)cc1Nc1cccc(C(=O)Nc2ncn(C)n2)c1OC [Example 36]
[2H]C([2H])([2H])NC(=O)c1nnc(NC(=O)C2CC2)cc1Nc1cccc(C(=O)Nc2cc(C)ccn2)c1OC [Example 37]
[2H]C([2H])([2H])NC(=O)c1nnc(NC(=O)C2CC2)cc1Nc1cccc(C(=O)Nc2ccnc(C)c2)c1OC [Example 39]
[2H]C([2H])([2H])NC(=O)c1nnc(NC(=O)C2CC2)cc1Nc1cccc(C(=O)Nc2cccc(C)n2)c1OC [Example 40]
[2H]C([2H])([2H])NC(=O)c1nnc(NC(=O)C2CC2)cc1Nc1cccc(C(=O)Nc2ncc(F)cn2)c1OC [Example 41]
[2H]C([2H])([2H])NC(=O)c1nnc(NC(=O)C2CC2)cc1Nc1cccc(C(=O)Nc2ccc(C)cn2)c1OC [Example 43]
[2H]C([2H])([2H])NC(=O)c1nnc(NC(=O)C2CC2)cc1Nc1cccc(C(=O)Nc2ccc(C)nc2)c1OC [Example 44]
[2H]C([2H])([2H])NC(=O)c1nnc(NC(=O)C2CC2)cc1Nc1cccc(C(=O)Nc2ncc(C)cn2)c1OC [Example 45]
[2H]C([2H])([2H])NC(=O)c1nnc(NC(=O)C2CC2)cc1Nc1cccc(C(=O)Nc2ccc(F)nc2)c1OC [Example 46]
[2H]C([2H])([2H])NC(=O)c1nnc(NC(=O)C2CC2)cc1Nc1cccc(C(=O)Nc2cnc(F)nc2)c1OC [Example 47]
[2H]C([2H])([2H])NC(=O)c1nnc(NC(=O)C2CC2)cc1Nc1cccc(C(=O)Nc2ccccn2)c1OC [Example 48]
[2H]C([2H])([2H])NC(=O)c1nnc(NC(=O)C2CC2)cc1Nc1cccc(C(=O)Nc2cccnc2)c1OC [Example 49]
[2H]C([2H])([2H])NC(=O)c1nnc(NC(=O)C2CC2)cc1Nc1cccc(C(=O)Nc2ccncc2)c1OC [Example 50]

Source: patent publication US20260098017A1, “NOVEL AROMATIC RING DERIVATIVE CONTAINING AMIDE SUBSTITUTION AND USE THEREOF” (TIANJIN PHARMACEUTICAL BIOTECHNOLOGY CO., LTD., priority 2022, published 2026)
